Where “and” joins values, the source holds several entries; their conditions need not be identical. Identical values can stand only once.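 Following 48 hours of exposure in 96-well plates, responses at five concentrations were used to interpolate endpoints linearly. GI50 marks 50% less growth. TGI is the concentration that stops growth completely.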
Columns and labels:
Assay in all cases: growth of human tumour cells (NCI), 48 h
DU-145 prostate = test system: DU-145 prostate
HCC-2998 colon = test system: HCC-2998 colon
NCI/ADR-RES ovarian = test system: NCI/ADR-RES ovarian
SK-MEL-28 melanoma = test system: SK-MEL-28 melanoma
SNB-75 CNS = test system: SNB-75 CNS
T-47D breast = test system: T-47D breast
HS 578T breast = test system: HS 578T breast

Structure (SMILES)	GI50 (DU-145 prostate)	TGI (DU-145 prostate) [µM]	GI50 (HCC-2998 colon)	TGI (HCC-2998 colon)	GI50 (NCI/ADR-RES ovarian)	TGI (NCI/ADR-RES ovarian) [µM]	GI50 (SK-MEL-28 melanoma)	TGI (SK-MEL-28 melanoma)	GI50 (SNB-75 CNS) [µM]	TGI (SNB-75 CNS) [µM]	GI50 (T-47D breast)	TGI (T-47D breast)	GI50 (HS 578T breast) [µM]	TGI (HS 578T breast)
O=C(O)c1cccc(COc2ccc([N+](=O)[O-])cc2Cl)c1	> 100 µM	> 100	> 100 µM	> 100 µM	> 100 µM	> 100	> 100 µM	> 100 µM	> 100	> 100	> 100 µM	> 100 µM	–	–
CC(C)[C@H](O)C(=O)N[C@@H](C)C(=O)N[C@@H]1C(=O)N(C)CCc2ccccc21	> 100 µM	> 100	> 100 µM	> 100 µM	> 100 µM	> 100	> 100 µM	> 100 µM	> 100	> 100	> 100 µM	> 100 µM	> 100	> 100 µM
N[C@H](CCC(=O)N[C@@H](Cc1c[nH]c2ccccc12)C(=O)O)C(=O)O	> 100 µM	> 100	> 100 µM	> 100 µM	> 100 µM	> 100	> 100 µM	> 100 µM	> 100	> 100	> 100 µM	> 100 µM	> 100	> 100 µM
Nc1ccccc1O.O.O=C(O)C1[O][Sb][O]C1C(=O)O (stereo not given)	14.6 µM	27.8	17.9 µM	47.7 µM	28.6 µM	> 87.2	10.2 µM	24.6 µM	24.9	40.5	12.2 µM	34 µM	9.07	46.2 µM
COc1cc2c(cc1O)CCN[C@]21CS[C@@H]2c3c(OC(C)=O)c(C)c4c(c3[C@H](COC1=O)N1[C@@H]2[C@H]2c3c(cc(C)c(OC)c3O)C[C@@H]([C@@H]1O)N2C)OCO4	–	1	0.00352 µM	0.00652 µM	0.00591 µM	2.61	–	–	–	–	–	3.02 µM	–	–
CN(C)CCNCCN	–	> 100	–	–	–	> 100	–	> 100 µM	–	–	–	> 100 µM	–	> 100 µM
COc1ccc(C(CC(=O)c2ccc3c(c2)OCO3)c2c(O)c3ccccc3oc2=O)cc1OC (stereo not given)	–	> 100	–	> 100 µM	–	> 100	–	> 100 µM	–	> 100	–	> 100 µM	–	> 100 µM
COC(=O)c1cc2c(o1)-c1nccc3c1c(nc1ccccc13)C2=O	4.26 µM	22.9	–	–	2.11 µM	5.68	11.5 µM	25.4 µM	–	–	1.88 µM	6.9 µM	14.2	37.1 µM
CCC(C)(O)c1cnc(CC(C)C)c(=O)n1O (stereo not given)	–	> 100	–	> 100 µM	–	–	–	> 100 µM	–	> 100	–	> 100 µM	–	> 100 µM
COC(=O)C1C(O)C(C(=O)OC)C(C)N(C)C1C (stereo not given)	–	–	–	–	–	> 100	–	> 100 µM	–	–	–	–	–	–
COC(=O)C1=COC(C)C2CN3CCc4c([nH]c5ccccc45)C3CC12 (stereo not given)	33.7 µM and > 100 µM	> 100	20.6 µM and > 100 µM	44.7 µM and > 100 µM	22.6 µM and > 100 µM	> 100	16.1 µM and > 100 µM	41.8 µM and > 100 µM	–	–	16.6 µM and > 100 µM	67.3 µM and > 100 µM	–	65.8 µM and > 100 µM
O=C(Nc1cc(Cl)ccc1O)c1ccc(Nc2ccnc(C(F)(F)F)c2)cc1	3.25 µM	> 100	3.73 µM	> 100 µM	2.93 µM	> 100	4.6 µM	> 100 µM	–	–	1.76 µM	6.39 µM	3.75	> 100 µM
COc1ccc(-c2cnnn2-c2nonc2-n2cccc2)cc1	0.342 µM	2.62	0.235 µM	2.89 µM	0.102 µM	0.67	0.52 µM	> 100 µM	0.222	–	–	–	0.239	2.13 µM
Cn1cc(-c2csc(-c3cn(CCCCN4CCCCC4)c4ccccc34)n2)c2cccnc21	1.75 µM	3.2	1.85 µM	3.41 µM	–	–	1.7 µM	3.12 µM	1.51	2.99	14.3 µM	40.3 µM	1.67	4.16 µM
CCCC(=O)C1=C(O)C(Cc2c(O)c(C)c(O)c(C(=O)CCC)c2O)=C(O)C(C)(C)C1=O	–	> 50	–	34.2 µM	–	–	–	> 50 µM	–	> 50	–	> 50 µM	–	> 50 µM
ClCCN(CCCl)c1ccc(CNc2ccccc2)cc1	5.28 µM	> 100	–	–	9.78 µM	> 100	36.8 µM	> 100 µM	3.7	57.4	5.91 µM	> 100 µM	12.4	83.2 µM
N#CCCN1C/C(=C/c2ccc(Br)cc2)C(=O)/C(=C/c2ccc(Br)cc2)C1	–	–	1.85 µM	3.31 µM	3.47 µM	> 100	1.77 µM	3.51 µM	4.35	31.4	4.36 µM	28.2 µM	–	–
COc1ccc(C(=O)c2cc(OC)c(OC)c(OC)c2)cc1OC	–	> 100	–	5.79 µM	–	> 100	–	> 100 µM	–	> 100	–	–	–	8.83 µM
